Data: US5082937A, “Benzodiazepines and applications in therapeutic practice” (Jouveinal S.A., priority 1989, dated 1992)
Read-outs that look alike come from different tables or passages of the source.

What was measured:
[1] = target: T1, peripheral cholecystokinin receptor: CCK-A (Rattus norvegicus, UniProt P30551); assay: Binding affinity for the peripheral cholecystokinin receptor (CCK A), plasma membranes of the rat pancreas, inhibition of labelled [125I]-CCK8 sulphate binding
T1 construct: plasma membranes of the rat pancreas; from tissue; host or cells: pancreas plasma membranes of male SD rats (animals from IFFA CREDO)
T1 sequence (P30551 1-444): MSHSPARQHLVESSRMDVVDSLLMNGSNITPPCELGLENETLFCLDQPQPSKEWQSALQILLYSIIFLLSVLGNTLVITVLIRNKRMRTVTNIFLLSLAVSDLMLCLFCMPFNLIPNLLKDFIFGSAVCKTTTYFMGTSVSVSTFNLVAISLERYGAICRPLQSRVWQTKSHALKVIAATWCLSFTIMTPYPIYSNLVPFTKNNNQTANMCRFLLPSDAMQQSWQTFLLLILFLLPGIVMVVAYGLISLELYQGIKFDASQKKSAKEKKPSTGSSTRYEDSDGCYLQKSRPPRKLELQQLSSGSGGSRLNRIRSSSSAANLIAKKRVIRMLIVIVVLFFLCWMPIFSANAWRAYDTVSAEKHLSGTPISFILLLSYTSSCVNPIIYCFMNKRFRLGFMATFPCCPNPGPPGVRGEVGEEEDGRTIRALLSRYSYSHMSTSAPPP
Description: (§1) The "in vitro" studies consisted in determining the binding affinity of the compounds of the invention for the cholecystokinin and gastrin receptors.
(§2) The aim of these experiments was to determine the solution concentrations of products of formula (I) which were capable of inhibiting in relation to the receptors in question fifty percent of the cholecystokinin bonds, labelled with […] (abbreviated below as [1251]-CCK8 sulphate) or in the case of the iodine-125-labelled gastrin receptor with the following receptors:
plasma membranes of the rat pancreas (male SD, rats, IFFA CREDO 200-225 g) (peripheral cholecystokinin receptor: CCK-A),
(§3) in accordance with the experimental protocol described by INNIS, R. B. and S. M. SNYDER, Eur. J. Pharmacol., 1980 65 123-124.
(§4) The unit of measurement is the nanomole.

[2] = target: T2, central cholecystokinin receptor: CCK-B (Cavia porcellus, UniProt H0VZC5); assay: Binding affinity for the central cholecystokinin receptor (CCK B), guinea-pig brain membranes, inhibition of labelled [125I]-CCK8 sulphate binding
T2 construct: guinea-pig brain membranes; from tissue; host or cells: brain membranes of male guinea pigs (animals from COBLABO)
T2 sequence (H0VZC5 1-426): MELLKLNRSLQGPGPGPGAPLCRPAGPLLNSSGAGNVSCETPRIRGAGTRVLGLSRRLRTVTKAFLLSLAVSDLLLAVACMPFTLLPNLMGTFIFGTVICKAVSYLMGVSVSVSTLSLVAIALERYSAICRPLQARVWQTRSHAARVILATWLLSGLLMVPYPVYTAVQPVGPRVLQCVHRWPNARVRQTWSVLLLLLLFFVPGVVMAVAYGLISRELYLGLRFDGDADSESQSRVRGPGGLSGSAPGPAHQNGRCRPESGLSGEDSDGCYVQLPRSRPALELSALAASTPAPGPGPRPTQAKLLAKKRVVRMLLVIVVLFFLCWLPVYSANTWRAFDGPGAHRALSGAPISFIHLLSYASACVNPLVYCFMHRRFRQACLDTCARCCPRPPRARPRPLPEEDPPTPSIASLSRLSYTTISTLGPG
Description: (§5) The "in vitro" studies consisted in determining the binding affinity of the compounds of the invention for the cholecystokinin and gastrin receptors. […]
(§6) guinea-pig brain membranes (males, COBLABO, 325-350 g) (central cholecystokinin receptor: CCK-B).
as §3, §4

[3] = target: T3, gastrin receptor (Cavia porcellus, UniProt H0VZC5); assay: Binding affinity for the gastrin receptor, guinea-pig gastric glands, iodine-125-labelled gastrin
T3 construct: guinea-pig gastric glands; from tissue; host or cells: gastric glands of male guinea pigs (animals from COB LABO)
T3 sequence (H0VZC5 1-426): T2 sequence (H0VZC5 1-426)
Description: as §1, §2
(§7) guinea-pig gastric glands (males, COB LABO, 325-350 g) in accordance with the method described by PRAISSMAN, M., M. E. WALDEN and C. PELLECHIA. Journal of Receptor Research, 1983 3 647-665 (gastrin receptor).
as §4

[4] = test system: central cholecystokinin receptor: CCK-B; assay: Binding affinity for the central cholecystokinin receptor (CCK B), guinea-pig brain membranes, inhibition of labelled [125I]-CCK8 sulphate binding; conditions: for Selectivity CCK B/CCK A: IC50 CCK A / IC50 CCK B
Description: as §5, §6, §3, §4

[5] = test system: gastrin receptor; assay: Binding affinity for the gastrin receptor, guinea-pig gastric glands, iodine-125-labelled gastrin; conditions: for Selectivity GASTRIN/CCK A: IC50 CCK A / IC50 gastrin
Description: as §1, §2, §7, §4

[6] = test system: gastrin-induced acid secretion; assay: Gastrin-induced acid secretion in the rat (chronic gastric fistula, pentagastrin perfusion); type: in vivo; conditions: 1 mg/kg oral; for Gastric secretion % inhibition: SD male rat, pentagastrin 6 μg/kg/h i.v.
Experimental: The activity of the products of the invention in relation to gastrin-induced acid secretion in the rat has been studied by the method described by Pascaud, X. P. , A. R. Roger and M. J. H. Genton. Digestion, […] 16 57-68. The method consists in collecting the gastric acid secretion over two consecutive 2 hour periods in SD male rats (IFFA CREDO 250-300 g), provided with a chronic gastric fistula and continuously perfused i.v. with a pentagastrin solution (Peptavlon, ICI, 6 μg/kg/h). The inhibition of this secretion by the oral administration of 1 mg/kg product of the invention has been determined.

[7] = test system: gastric evacuation, slowed down by CCK-8 (peripheral receptor CCK-A); assay: Gastric evacuation slowed down by CCK-8 in the mouse; type: in vivo; conditions: oral; for ED50: Mus musculus, SWISS male mice, CCK-8 80 μg/kg subcutaneous
Experimental: The antagonist activity of CCK on the digestive motor effects of the hormone has been examined in relation to the gastric evacuation, slowed down by the subcutaneous administration of CCK-8 (80 μg/kg) in SWISS male mice (IFFA CREDO 16-20 g), using the technique described by Lotti, V. J., D. J. Cerino, P. J. Kling and R. S. L. Chang. Life Sciences, 1986 39, 1631-1638.

[8] = test system: A receptors of cholecystokinin; conditions: published, in vitro; cited from earlier work
[9] = test system: gastrin receptors; conditions: published, in vitro, cited from earlier work
[10] = guinea-pig brain membranes; Table I; read-out: IC50 Receptor bond CCK B
[11] = guinea-pig gastric glands; Table I; read-out: IC50 Receptor bond Gastrin
[12] = in comparison with compound XXa

SMILES: Cc1cccc(NC(=O)NC2N=C(c3ccccc3)c3cccc4c3N(CCC4)C2=O)c1 (racemic) [Example 5, (5R,S)-N-(keto-4-phenyl-7-hexahydro-1,2,3,3a,4,5-pyrido [3,2,1-j,k]benzodiazepine-[1,4]-yl-5)-N'-(methyl-3-phenyl-)-urea]
- IC50 [1]: 84.2 nM
- IC50 [2, 10]: 251 nM
- IC50 [3, 11]: 1.5 nM
- times less active on the gastrin receptor than XXa [3, 12]: 3 times
- activity compared with reference compound XXa (gastrin-specific compounds) ([3]; in words): similar

SMILES: O=C(Nc1cnc2ccccc2c1)NC1N=C(c2ccccc2)c2cccc3c2N(CCC3)C1=O (racemic) [Example 23, (5R,S)-N-(keto-4-phenyl-7-hexahydro-1,2,3,3a,4,5-pyrido[3,2,1-j,k]benzodiazepine[1,4]-yl-5)-N'-(quinolinyl-3-)-urea]
- IC50 [1]: 389 nM
- IC50 [2, 10]: 176 nM
- factor less active on the CCK B receptor than XXa [2, 12]: 2 factor
- higher selectivity for the CCK B receptor than XXa [4, 12]: ~30 times
- IC50 [3, 11]: 298 nM
- times less active on the gastrin receptor than XXa [3, 12]: ~60 times

SMILES: Cc1cccc(NC(=O)N[C@@H]2N=C(c3ccccc3)c3cccc4c3N(CCC4)C2=O)c1 [Example 7, (+)-(5R)-N-(keto-4-phenyl-7-hexahdyro-1,2,3,3a,4,5-pyrido [3,2,1-j,k]benzodiazepine[1,4]-yl-5)-N'-(methyl-3-phenyl-)-urea]
- IC50 [1]: 1730 nM
- IC50 [2, 10]: 255 nM
- IC50 [3, 11]: 40.5 nM

SMILES: Cc1cccc(NC(=O)NC2N=C(c3ccccc3)c3cccc4c3N(CC4)C2=O)c1 (racemic) [Example 1, (4R,S)-N-(keto-3-phenyl-6-tetrahydro-1,2,3,4-pyrrolo[3,2,1-j,k]benzodiazepine[1,4]-yl-4)-N'-(methyl-3-phenyl-)-urea]
- IC50 [1]: 59.6 nM
- IC50 [2, 10]: 431 nM
- IC50 [3, 11]: 14.4 nM

SMILES: O=C(Nc1ccc([N+](=O)[O-])cc1)NC1N=C(c2ccccc2)c2cccc3c2N(CCC3)C1=O (racemic) [Example 8, (5R,S)-N-(keto-4-phenyl-7-hexahydro-1,2,3,3a,4,5-pyrido[3,2,1-j,k]benzodiazepine-[1,4]-yl-5)-N'-(nitro-4-phenyl-)-urea]
- IC50 [1]: 3080 nM
- IC50 [2, 10]: 1810 nM
- IC50 [3, 11]: 60 nM

SMILES: Cc1cccc(NC(=O)N[C@@H]2N=C(c3ccccc3)c3ccccc3N(C)C2=O)c1 [XXa, reference compound]
- IC50 ([1]; rat pancreas plasma membranes, Table I, read-out: IC50 Receptor bond CCK A): 1420 nM
- IC50 ([2]; read-out: IC50 Receptor bond CCK B; guinea-pig brain membranes; Table I): 81.4 nM
- Selectivity CCK B/CCK A [4]: 17
- IC50 ([3]; read-out: IC50 Receptor bond Gastrin; guinea-pig gastric glands; Table I): 4.7 nM
- Selectivity GASTRIN/CCK A [5]: 302
- CCK-A/gastrin activity ratio reproduced by the Applicant (times more favourable to gastrin receptors) ([5]; ratio 1419/4.7): about 300 times
- Gastric secretion % inhibition [6]: 29%
- ED50 [7]: 0.15 mg/kg
- CCK-A activity, term of the CCK-A/gastrin ratio [8]: 290
- gastrin activity, term of the CCK-A/gastrin ratio [9]: 1.9
- CCK-A/gastrin activity ratio (times more favourable to gastrin receptors) ([9]; ratio 290/1.9): about 150 times

SMILES: Cc1cccc(NC(=O)N[C@@H]2N=C(c3ccccc3)c3cccc4c3N(CC4)C2=O)c1 [Example 2, (4R)-N-(keto-3-phenyl-6-tetrahydro-1,2,3,4-pyrrolo[3,2,1-j,k]benzodiazepine-[1,4]-yl-4)-N'-(methyl-3-phenyl-)-urea]
- IC50 [1]: 1020 nM
- activity on the CCK A receptor compared with XXa ([1]; in words): of the same order
- IC50 [2, 10]: 99.9 nM
- activity on the CCK B receptor compared with XXa ([2]; in words): of the same order
- IC50 [3, 11]: 85.9 nM
- times less active on the gastrin receptor than XXa [3, 12]: 20 times

SMILES: O=C1C(NC(=S)Nc2ccc(Br)cc2)N=C(c2ccccc2)c2cccc3c2N1CCC3 (stereo in doubt) [Example 26, (5S)-N-(keto-4-phenyl-7-hexahydro-1,2,3,3a,4,5-pyrido[3,2,1-j,k]benzodiazepine[1,4]-yl-4)-N'-(bromo-4-phenyl-)-thiourea]
- IC50 [1]: > 10000 nM
- IC50 [2, 10]: 137 nM
- Selectivity CCK B/CCK A [4]: > 70
- IC50 [3, 11]: 36 nM
- Selectivity GASTRIN/CCK A [5]: > 250

SMILES: O=C1C(NC(=S)Nc2ccc(Br)cc2)N=C(c2ccccc2)c2cccc3c2N1CCC3 (racemic) [Example 10, (5R,S)-N-(keto-4-phenyl-7-hexahydro-1,2,3,3a,4,5-pyrido[3,2,1-j-k]benzodiazepine-[1,4]-yl-5)-N'-(bromo-4-phenyl-)-thiourea]
- IC50 [1]: 3040 nM
- IC50 [2, 10]: 88 nM
- IC50 [3, 11]: 3.2 nM
- times less active on the gastrin receptor than XXa [3, 12]: 1.5 times
- activity compared with reference compound XXa (gastrin-specific compounds) ([3]; in words): similar
- Gastric secretion % inhibition [6]: 31%
- inhibiting activity on gastrin-induced acid secretion compared with XXa ([6]; in words): identical
- ED50 [7]: 15.5 mg/kg
- times more product required than XXa for 50% reduction of the inhibiting effects of CCK-8 on gastric evacuation ([7]; in comparison with XXa): 100 times
